This passage reports inhibition results from patent US9884832B2 (priority 2011, dated 2018).

The inhibition is the drop in the measured response relative to a control, in per cent.

The target of the first test is AM2 S31 (wild-type serine at position 31 in the M2 protein), influenza virus A/Udorn/72 (Influenza A virus, UniProt P0DOF5). Description: cell-based. The settings on record: 100 uM; Xenopus oocytes; activity range class; read-out: S31 OOcyte Inhibition at 100 uM (%).
Sequence of AM2 S31 (wild-type serine at position 31 in the M2 protein), influenza virus A/Udorn/72 (P0DOF5 whole entry, looked up): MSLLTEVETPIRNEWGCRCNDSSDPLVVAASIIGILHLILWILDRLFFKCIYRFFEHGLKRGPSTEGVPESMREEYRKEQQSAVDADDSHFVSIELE
With `c1cnc2ccc(CNC34CC5CC(CC(C5)C3)C4)cc2c1` [Example 39a, Adamantan-1-yl-quinolin-6-ylmethyl-amine], the inhibition at 100 µM is 0 to 30%.
For `c1cc(-c2nc(CNC34CC5CC(CC(C5)C3)C4)no2)cs1` [Example 143a, N-((5-(thiophen-3-yl)-1,2,4-oxadiazol-3-yl)methyl)adamantan-1-amine], the inhibition at 100 µM was in the range of 0 to 30%.
Turning to `Brc1ccc(-c2cc(CNC34CC5CC(CC(C5)C3)C4)on2)cc1` [Example 117a, N-((3-(4-bromophenyl)isoxazol-5-yl)methyl)adamantan-1-amine], the inhibition at 100 µM was in the range of 0 to 30%.
As to `CSc1ccc(-c2ccc(CNC34CC5CC(CC(C5)C3)C4)s2)cc1` [Example 112a, N-((5-(4-(methylthio)phenyl)thiophen-2-yl)methyl)adamantan-1-amine], the inhibition at 100 µM fell in the range of 0 to 30%.
For the molecule `FC(F)(F)c1ccc(-c2nc(CNC34CC5CC(CC(C5)C3)C4)no2)cc1` [Example 129a, N-((5-(4-(trifluoromethyl)phenyl)-1,2,4-oxadiazol-3-yl)methyl)adamantan-1-amine], the inhibition at 100 µM fell in the range of 0 to 30%.
For the molecule `Cc1ccc(-c2ccc(CNC34CC5CC(CC(C5)C3)C4)s2)s1` [Example 141a, N-((5′-methyl-[2,2′-bithiophen]-5-yl)methyl)adamantan-1-amine], the inhibition at 100 µM was in the range of 0 to 30%.
In the case of `c1ccc(-c2nc(CNC34CC5CC(CC(C5)C3)C4)cs2)cc1` [Example 132a, N-((2-phenylthiazol-4-yl)methyl)adamantan-1-amine], the inhibition at 100 µM is 0 to 30%.
On the same count and under the same terms, the same measure for `CC(C)c1csc(CNC23CC4CC(CC(C4)C2)C3)n1` [Example 84a, N-((4-isopropylthiazol-2-yl)methyl)adamantan-1-amine]: 0 to 30%; for `Brc1cc(CNC23CC4CC(CC(C4)C2)C3)on1` [Example 94a, N-((3-bromoisoxazol-5-yl)methyl)adamantan-1-amine]: 0 to 30%; for `Cc1nc(CNC23CC4CC(CC(C4)C2)C3)c[nH]1` [Example 99a, N-((2-methyl-1H-imidazol-4-yl)methyl)adamantan-1-amine]: 0 to 30%.
In the case of `FC(F)(F)Oc1ccc(CNC23CC4CC(CC(C4)C2)C3)cc1` [Example 4a, Adamantan-1-yl-(4-trifluoromethoxy-benzyl)-amine], the inhibition at 100 µM lay in the range of 0 to 30%.
Take `COc1ccc2cc(CNC34CC5CC(CC(C5)C3)C4)[nH]c2c1` [Example 186a, N-((6-methoxy-1H-indol-2-yl)methyl)adamantan-1-amine]: the inhibition at 100 µM was 0 to 30%.
Regarding `COC(=O)c1ccc(-c2ccc(CNC34CC5CC(CC(O)(C5)C3)C4)cc2)cc1` [Example 190a, 4′-[(3-Hydroxy-adamantan-1-ylamino)-methyl]-biphenyl-4-carboxylic acid methyl ester], the inhibition at 100 µM fell in the range of 0 to 30%.
As for `Fc1ccc(-c2cc(CNC34CC5CC(CC(C5)C3)C4)no2)cc1` [Example 118a, N-((5-(4-fluorophenyl)isoxazol-3-yl)methyl)adamantan-1-amine], the inhibition at 100 µM was in the range of 0 to 30%.
Consider `Cc1ccc(C(C)NC23CC4CC(CC(C4)C2)C3)s1` (stereo not shown) [Example 97a, N-(1-(5-methylthiophen-2-yl)ethyl)adamantan-1-amine], for which the inhibition at 100 µM is 0 to 30%.
Same read-out and setting: with `Cn1c(CNC23CC4CC(CC(C4)C2)C3)nc2ccccc21` [Example 180a, Adamantan-1-yl-(1-methyl-1H-benzoimidazol-2-ylmethyl)-amine] the figure was 0 to 30%; with `CC(C)(C)c1ccc(-c2noc(CNC34CC5CC(CC(C5)C3)C4)n2)cc1` [Example 124a, N-((3-(4-(tert-butyl)phenyl)-1,2,4-oxadiazol-5-yl)methyl)adamantan-1-amine], 0 to 30%.

Still in this test, the particulars now being: Table 1; 100 uM; Xenopus oocytes, pH 5.5, -20 mV; read-out: S31 OOcyte Inhibition at 100 uM (%).
Regarding `Oc1ccc(CNC23CC4CC(CC(C4)C2)C3)cc1Cl` [Example 47, 4-(Adamantan-1-ylaminomethyl)-2-chloro-phenol], the inhibition at 100 µM was in the range of 31 to 95%.
Consider `Oc1ccc(CN2CCC3(CCCCC3)CC2)c(O)c1` [Example 115, 4-(3-Aza-spiro[5.5]undec-3-ylmethyl)-benzene-1,3-diol], for which the inhibition at 100 µM is 31 to 95%.
As for `CSc1ccc(CNC23CC4CC(CC(C4)C2)C3)cc1` [Example 23, Adamantan-1-yl-(4-methylsulfanyl-benzyl)-amine], the inhibition at 100 µM was in the range of 0 to 30%.
Turning to `NC(=O)COc1ccc(CNC23CC4CC(CC(C4)C2)C3)cc1` [Example 39, 2-(4-((Adamantan-1-ylamino)methyl)phenoxy)acetamide], the inhibition at 100 µM lay in the range of 0 to 30%.
Still for that read-out and setting: with `Oc1cc(O)c(CNC23CC4CC(CC(C4)C2)C3)c(O)c1` [Example 70, 2-(Adamantan-1-ylaminomethyl)-benzene-1,3,5-triol] the figure was 0 to 30%; with `Fc1ccc(C(F)(F)F)cc1CNC12CC3CC(CC(C3)C1)C2` [Example 62, Adamantan-1-yl-(2-fluoro-5-trifluoromethyl-benzyl)-amine], 0 to 30%; with `[O-][S+]1Cc2cc(CNC34CC5CC(CC(C5)C3)C4)sc2C1` (stereo not shown) [Example 85, Adamantan-1-yl-(5-oxo-5,6-dihydro-4H-5M-thieno[3,4-b]thiophen-2-ylmethyl)-amine], 0 to 30%.
Regarding `COc1cc(F)c(CNC23CC4CC(CC(C4)C2)C3)c(F)c1` [Example 67, Adamantan-1-yl-(2,6-difluoro-4-methoxy-benzyl)-amine], the inhibition at 100 µM fell in the range of 31 to 95%.

The same test, now with this note: Table 3; 100 uM; Xenopus oocytes, pH 5.5, -20 mV; read-out: S31 OOcyte Inhibition at 100 uM (%).
Turning to `Clc1ccccc1-c1nc(CNC23CC4CC(CC(C4)C2)C3)no1` [Example 31b, N-((5-(2-chlorophenyl)-1,2,4-oxadiazol-3-yl)methyl)adamantan-1-amine], the inhibition at 100 µM lay in the range of 0 to 30%.
In the case of `Oc1cc(F)ccc1CNC12CC3CC(CC(C3)C1)C2` [Example 6b], the inhibition at 100 µM was 31 to 95%.
With `CCOc1ccc(-c2ccc(CNC34CC5CC(CC(C5)C3)C4)s2)cc1` [Example 49b, N-((5-(4-Ethoxyphenyl)thiophen-2-yl)methyl)adamantan-1-amine], the inhibition at 100 µM is 0 to 30%.
On to `C1CCC(c2nc(CNC34CC5CC(CC(C5)C3)C4)no2)CC1` [Example 24b], for which the inhibition at 100 µM is 31 to 95%.
Consider `COc1ccc(-c2nc(CNC34CC5CC(CC(C5)C3)C4)no2)c(OC)c1` [Example 34b, N-((5-(2,4-dimethoxyphenyl)-1,2,4-oxadiazol-3-yl)methyl)adamantan-1-amine], for which the inhibition at 100 µM was in the range of 0 to 30%.
As for `FC(F)(F)c1nnc(CNC23CC4CC(CC(C4)C2)C3)o1` [Example 14b, N-((5-(trifluoromethyl)-1,3,4-oxadiazol-2-yl)methyl)adamantan-1-amine], the inhibition at 100 µM fell in the range of 0 to 30%.
Take `CCCSc1ncc(CNC23CC4CC(CC(C4)C2)C3)cn1` [Example 62b, N-((2-propylthiopyrimidin-5-yl)methyl)adamantan-1-amine]: the inhibition at 100 µM lay in the range of 0 to 30%.
Still for that read-out and setting: the same measure for `Cc1cccc(-c2ncc(CNC34CC5CC(CC(C5)C3)C4)cn2)c1` [Example 63b, N-((2-mtolylpyrimidin-5-yl)methyl)adamantan-1-amine]: 0 to 30%; for `COc1ccccc1-c1nc(CNC23CC4CC(CC(C4)C2)C3)no1` [Example 15b, N-((5-(2-methoxyphenyl)-1,2,4-oxadiazol-3-yl)methyl)adamantan-1-amine]: 0 to 30%.
